In patent publication EP4768484A1, “HETEROCYCLIC FUSED RING COMPOUND, AND COMPOSITION AND USE THEREOF” (Shenzhen TargetRx, Inc., priority 2023, dated 2025):
Blank lines part the entries; values can stand above or below the molecule they belong to.

How the values were obtained:
Format in all cases: cell-based
[1] = target: T1, Ba/F3 BCR-ABL1 A337V (Homo sapiens, UniProt P00519+P11274, A337V); experiment: Cell growth inhibitory activity assay (CellTiter-Glo), Ba/F3 BCR-ABL1 A337V cells; settings: 72 h, CTG cell viability
T1 construct: BCR (N-terminal fusion partner of the oncoprotein); expressed in transfected cells; host or cells: Ba/F3 (lentiviral transduction, monoclonal line)
Experimental: (§1) In this assay, the Celltiter-Glo (CTG) kit provided by Promega was used, and it is a homogeneous cell viability assay method. The cell viability of cultured cells was measured by quantifying ATP. K562 cells were purchased from Nanjing Kebai, product number CBP60529; Ba/F3 parental cells were purchased from RIKEN BRC, product number RCB0805; other cells containing BCR-ABL1 WT, BCR-ABL1 T315I, BCR-ABL1 T315M, BCR-ABL1 Y253H/E255K, BCR-ABL1 E255V/T3151, BCR-ABL1 A424T, BCR-ABL1 A337V, BCR-ABL1 P465S, BCR-ABL1 V468F, and BCR-ABL1 I502L were all monoclonal engineered cell lines obtained by transducting Ba/F3 parental cells with the lentivirus plasmids containing WT or corresponding mutated BCR-ABL1.
(§2) The steps of cell viability assay are as follows: • a) Cells in logarithmic growth phase were collected. Cell suspension was prepared and the cells were counted. Concentration of the cells was calculated. • b) The cell suspension was diluted to the required concentration and then added to the middle wells of a 96-well plate, and PBS was added to the edge wells. The wells with no cells and only culture medium were used as blank controls. • c) In addition to the cell plate used for compound analysis, another 96-well plate was prepared as a T0 plate, and 3-6 blank wells and 3-6 cell wells were added. The next day, CTG was used to test the cell viability as the T0 viability value of the cells. • d) The cell plate was incubated at 37 °C in a 5% CO2 incubator overnight. • e) The next day, each concentration of a compound subjected to a gradient dilution was added, and the cell plate was incubated at 37 °C in a 5% CO2 incubator for 72 h. The wells with no compound and only 0.5% DMSO were used as positive controls for cell growth. • f) CTG reagent (CellTiter-Glo kit) was added according to the manufacturer's instructions to test the cell viability value. • g) The plate was read using Biotek cytation3.0 microplate reader and the data were exported. • h) IC50 was calculated using GraphPad Prism 7.0 software.
(§3) The IC50 (half-maximal inhibitory concentration) of the compound was obtained using the following nonlinear fitting formula: Y = Bottom + (Top−Bottom)/(1+10^(∧)((LogIC50−X)*HillSlope)) [formula] • X: Log value of the compound concentration • Y: Inhibition rate (% inhibition) • Top: Maximum response • Bottom: Baseline response • HillSlope: Slope of the curve
(§4) The formula for calculating cell inhibition rate (inhibition rate %) was: [formula]

[2] = target: T2, Ba/F3 BCR-ABL1 WT (Homo sapiens, UniProt P00519+P11274); experiment: Cell growth inhibitory activity assay (CellTiter-Glo), Ba/F3 BCR-ABL1 WT cells; settings: 72 h, CTG cell viability
T2 construct: BCR (N-terminal fusion partner of the oncoprotein); expressed in transfected cells; host or cells: Ba/F3 (lentiviral transduction, monoclonal line)
How it was run: (§5)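 Ba/F3 parental cells or Ba/F3 lines lentivirally transduced with WT or mutant BCR-ABL1, seeded overnight then exposed to serially diluted compound 72 h at 37 °C, 5% CO2. Viability by CellTiter-Glo ATP luminescence with a T0 plate; 0.5% DMSO controls; IC50 from four-parameter nonlinear fit.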

[3] = target: T3, Ba/F3 BCR-ABL1 T315M (Homo sapiens, UniProt P00519+P11274, T315M); experiment: Cell growth inhibitory activity assay (CellTiter-Glo), Ba/F3 BCR-ABL1 T315M cells; settings: 72 h, CTG cell viability
T3 construct: BCR (N-terminal fusion partner of the oncoprotein); expressed in transfected cells; host or cells: Ba/F3 (lentiviral transduction, monoclonal line)
How it was run: as §5

[4] = target: T4, Ba/F3 BCR-ABL1 A424T (Homo sapiens, UniProt P00519+P11274, A424T); experiment: Cell growth inhibitory activity assay (CellTiter-Glo), Ba/F3 BCR-ABL1 A424T cells; settings: 72 h, CTG cell viability
T4 construct: BCR (N-terminal fusion partner of the oncoprotein); expressed in transfected cells; host or cells: Ba/F3 (lentiviral transduction, monoclonal line)
Experimental: as §1, §2, §3, §4

[5] = target: T5, Ba/F3 BCR-ABL1 Y253H/E255K (Homo sapiens, UniProt P00519+P11274, E255K/Y253H); experiment: Cell growth inhibitory activity assay (CellTiter-Glo), Ba/F3 BCR-ABL1 Y253H/E255K cells; settings: 72 h, CTG cell viability
T5 construct: BCR (N-terminal fusion partner of the oncoprotein); expressed in transfected cells; host or cells: Ba/F3 (lentiviral transduction, monoclonal line)
Experimental: as §1, §2, §3, §4

[6] = system: K562 cells; experiment: Cell growth inhibitory activity assay (CellTiter-Glo), K562 cells; settings: Homo sapiens, 72 h, CTG cell viability
How it was run: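 Growth inhibition of human K562 cells, sourced from Nanjing Kebai (CBP60529), was assessed with Promega's CellTiter-Glo kit, which measures viability through ATP quantification. Log-phase cells went into the inner wells of 96-well plates, with PBS in edge wells, incubated overnight at 37 °C and 5% CO2, then exposed to serially diluted compound for 72 h.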

[7] = target: T6, Ba/F3 BCR-ABL1 T315I (Homo sapiens, UniProt P00519+P11274, T315I); experiment: Cell growth inhibitory activity assay (CellTiter-Glo), Ba/F3 BCR-ABL1 T315I cells; settings: 72 h, CTG cell viability
T6 construct: BCR (N-terminal fusion partner of the oncoprotein); expressed in transfected cells; host or cells: Ba/F3 (lentiviral transduction, monoclonal line)
How it was run: as §5

[8] = target: T7, Ba/F3 BCR-ABL1 I502L (Homo sapiens, UniProt P00519+P11274, I502L); experiment: Cell growth inhibitory activity assay (CellTiter-Glo), Ba/F3 BCR-ABL1 I502L cells; settings: 72 h, CTG cell viability
T7 construct: BCR (N-terminal fusion partner of the oncoprotein); expressed in transfected cells; host or cells: Ba/F3 (lentiviral transduction, monoclonal line)
Experimental: as §1, §2, §3, §4

[9] = system: Ba/F3 parental cells; experiment: Cell growth inhibitory activity assay (CellTiter-Glo), Ba/F3 parental cells; settings: Mus musculus, BaF3, 72 h, CTG cell viability, read-out: IC50 Ba/F3 BCR-ABL1 Parental
How it was run: as §5

[10] = target: T8, Ba/F3 BCR-ABL1 P465S (Homo sapiens, UniProt P00519+P11274, P465S); experiment: Cell growth inhibitory activity assay (CellTiter-Glo), Ba/F3 BCR-ABL1 P465S cells; settings: 72 h, CTG cell viability
T8 construct: BCR (N-terminal fusion partner of the oncoprotein); expressed in transfected cells; host or cells: Ba/F3 (lentiviral transduction, monoclonal line)
Experimental: as §1, §2, §3, §4

[11] = target: T9, Ba/F3 BCR-ABL1 V468F (Homo sapiens, UniProt P00519+P11274, V468F); experiment: Cell growth inhibitory activity assay (CellTiter-Glo), Ba/F3 BCR-ABL1 V468F cells; settings: 72 h, CTG cell viability
T9 construct: BCR (N-terminal fusion partner of the oncoprotein); expressed in transfected cells; host or cells: Ba/F3 (lentiviral transduction, monoclonal line)
Experimental: as §1, §2, §3, §4

[12] = target: T10, Ba/F3 BCR-ABL1 E255V/T315I (Homo sapiens, UniProt P00519+P11274, E255V/T315I); experiment: Cell growth inhibitory activity assay (CellTiter-Glo), Ba/F3 BCR-ABL1 E255V/T315I cells; settings: 72 h, CTG cell viability
T10 construct: BCR (N-terminal fusion partner of the oncoprotein); expressed in transfected cells; host or cells: Ba/F3 (lentiviral transduction, monoclonal line)
Experimental: as §1, §2, §3, §4

SMILES: C[C@@H]1COCc2nc3cc(C(=O)Nc4ccc(OC(F)(F)Cl)cc4)cc(-c4cnc5c(c4)-c4nn(S(C)(=O)=O)cc4C5)c3n21 [T-42, (R)-N-(4-(chlorodifluoromethoxy)phenyl)-4-methyl-6-(2-(methylsulfonyl)-2,4-dihydropyrazolo[3',4':3,4]cyclopenta[1,2-b]pyridin-7-yl)-3,4-dihydro-1H-benzo[4,5]imidazo[2,1-c][1,4]oxazine-8-carboxamide]
IC50 [1]: 50 to 1000 nM | IC50 [2]: ≤ 5 nM | IC50 [3]: 50 to 1000 nM | IC50 [4]: 50 to 1000 nM | IC50 [5]: 50 to 1000 nM | IC50 [6]: ≤ 5 nM | IC50 [7]: 5 to 50 nM | IC50 [8]: 50 to 1000 nM | IC50 [9]: > 1000 nM | IC50 [10]: 50 to 1000 nM | IC50 [11]: 50 to 1000 nM | IC50 [12]: 50 to 1000 nM

SMILES: CC(C)n1cc2c(n1)-c1cc(-c3cc(C(=O)Nc4ccc(OC(F)(F)Cl)cc4)cc4nc5n(c34)[C@H](C)COC5)cnc1C2 [T-48, (R)-N-(4-(chlorodifluoromethoxy)phenyl)-6-(2-isopropyl-2,4-dihydropyrazolo[3',4':3,4]cyclopenta[1,2-b]pyridin-7-yl)-4-methyl-3,4-dihydro-1H-benzo[4,5]imidazo[2,1-c][1,4]oxazine-8-carboxamide]
IC50 [1]: 5 to 50 nM | IC50 [2]: ≤ 5 nM | IC50 [3]: > 1000 nM | IC50 [4]: 5 to 50 nM | IC50 [5]: ≤ 5 nM | IC50 [6]: ≤ 5 nM | IC50 [7]: ≤ 5 nM | IC50 [8]: 5 to 50 nM | IC50 [9]: > 1000 nM | IC50 [10]: 50 to 1000 nM | IC50 [11]: 5 to 50 nM | IC50 [12]: ≤ 5 nM

SMILES: C[C@@H]1COCc2nc3cc(C(=O)Nc4ccc(OC(F)(F)Cl)cc4)cc(-c4cnc5c(c4)-c4nn(CC(F)(F)F)cc4C5)c3n21 [T-49, (R)-N-(4-(chlorodifluoromethoxy)phenyl)-4-methyl-6-(2-(2,2,2-trifluoroethyl)-2,4-dihydropyrazolo[3',4':3,4]cyclopenta[1,2-b]pyridin-7-yl)-3,4-dihydro-1H-benzo[4,5]imidazo[2,1-c][1,4]oxazine-8-carboxamide]
IC50 [1]: 5 to 50 nM | IC50 [2]: ≤ 5 nM | IC50 [3]: 50 to 1000 nM | IC50 [4]: ≤ 5 nM | IC50 [5]: ≤ 5 nM | IC50 [6]: ≤ 5 nM | IC50 [7]: ≤ 5 nM | IC50 [8]: 5 to 50 nM | IC50 [9]: > 1000 nM | IC50 [10]: 5 to 50 nM | IC50 [11]: 5 to 50 nM | IC50 [12]: ≤ 5 nM

Further lines, with some results ahead:

IC50 [6]: ≤ 5 nM
SMILES: C[C@@H]1COCc2nc3cc(C(=O)Nc4ccc(OC(F)(F)Cl)cc4)cc(-c4cnc5c(c4)-c4nn(C6COC6)cc4C5)c3n21 [T-52, (R)-N-(4-(chlorodifluoromethoxy)phenyl)-4-methyl-6-(2-(oxetan-3-yl)-2,4-dihydropyrazolo[3',4':3,4]cyclopenta[1,2-b]pyridin-7-yl)-3,4-dihydro-1H-benzo[4,5]imidazo[2,1-c] [1,4]oxazine-8-carboxamide]
IC50 [1]: 50 to 1000 nM | IC50 [2]: ≤ 5 nM | IC50 [3]: > 1000 nM | IC50 [4]: 5 to 50 nM | IC50 [5]: 5 to 50 nM | IC50 [7]: ≤ 5 nM | IC50 [8]: 5 to 50 nM | IC50 [9]: > 1000 nM | IC50 [10]: 50 to 1000 nM | IC50 [11]: 5 to 50 nM | IC50 [12]: ≤ 5 nM

IC50 [6]: ≤ 5 nM
SMILES: [2H]C([2H])([2H])C([2H])(n1cc2c(n1)-c1cc(-c3cc(C(=O)Nc4ccc(OC(F)(F)Cl)cc4)cc4nc5n(c34)[C@H](C)COC5)cnc1C2)C([2H])([2H])[2H] [T-54]
IC50 [1]: 5 to 50 nM | IC50 [2]: ≤ 5 nM | IC50 [3]: > 1000 nM | IC50 [4]: 5 to 50 nM | IC50 [5]: ≤ 5 nM | IC50 [7]: ≤ 5 nM | IC50 [8]: 5 to 50 nM | IC50 [9]: > 1000 nM | IC50 [10]: 5 to 50 nM | IC50 [11]: 5 to 50 nM | IC50 [12]: ≤ 5 nM
